The target in test [1] is T1, BRD4 (Homo sapiens, UniProt O60885). Nature of the test: Summary of BRD4 degradation by CURE-PRO pairs, estimated from Western Blot or WES. The test is classed as cell-based. Also noted: endogenous in cells. Conditions: for Degradation of BRD4, combination with CRBN ligand 8047: Table 1, aryl-boronic acid BRD4 ligand + 8047; for Degradation of BRD4, combination with CRBN ligand 8066: Table 1, aryl-boronic acid BRD4 ligand + 8066; for Degradation of BRD4, combination with CRBN ligand 8046: Table 1, aryl-boronic acid BRD4 ligand + 8046; for Degradation of BRD4, combination with CRBN ligand 8048: Table 4, aromatic 1,2-diol BRD4 ligand + 8048. The protocol:
(§1) Namalwa, Ramosm HeLa, MCF7, or HT29 HCT116 cells (2.5-3×10^6) were treated for 24 hours with the indicated compounds solubilized in DMSO. The cells were washed in ice-cold PBS and were then lysed in RIPA lysis buffer (150 mM NaCl, 5 mM EDTA, 1% NP-40, 0.5% sodium deoxycholate, 0.1% SDS, 50 mM Tris, pH 8.0.) with Roche protease inhibitor complete cocktail and phosphatase inhibitors (10 mM sodium fluoride, 10 mM sodium pyrophosphate, 1 mM sodium orthovanadate and 20 mM β-glycerophosphate). The total protein concentrations were determined by Bradford Protein Assay (Pierce) and 10-20 μg of protein was loaded onto 4-15% Tris-Glycine gradient gels (Biorad). After standard gel electrophoresis, the separated proteins were transferred to PVDF membrane by wet transfer. The immunoblots were then blocked for 1 hour in 5% skim milk in TBST or 5% BSA in TBST, according to manufacturer's instructions, before an overnight incubation at 4° C. with indicated antibodies and membranes. Membranes were then incubated with the appropriate horseradish peroxidase-conjugated secondary antibodies (1:5,000 dilution) for 1 h at room temperature and the bands were visualized using the Clarity Max Western ECL Substrate (Biorad) and the ChemiDoc Imaging System (Biorad). Signal was detected with ECL Western Blotting Substrate (Pierce) and X-ray film processed with a Konica SRX-101 X-ray film processor or captured by Bio-Rad's Chemidoc Imaging system.
WES Simple analysis was performed on WES system (ProteinSimple-Biotechne) according to the manufacturer's instructions. Total protein concentrations of cell lysates were determined by the Pierce BCA kit (Thermo Fisher). 3 μL of 0.3 μg/μL of the protein lysate was loaded onto a 12- to 230-kDa WES assay plate (ProteinSimple) where 300 nL sample was withdrawn through a capillary, subjected to electrophoretic separation of proteins by size, and followed by the simultaneous, HRP-based detection of proteins using the Anti-Rabbit Detection Module (Proteinsimple: #DM-001). The electropherograms were checked then the automatic peak detection was manually corrected if it was required.
A black check mark indicates efficacy of 30% to 70% or higher protein degradation.

Test [2] has as its target T1, BRD4. Nature of the test: CURE-PRO-mediated BRD4 degradation in HeLa cells, Western blot. The conditions noted are these: 24 h. More on the design: endogenous in cells; host or cells: HeLa. It is filed as cell-based. The protocol: All cell lines were purchased from ATCC or DSMZ and grown at 37° C. with 5% CO2. Human HeLa cells were cultured in complete growth medium (Dulbecco's modified Eagle's medium (DMEM) supplemented with 10% FBS); MCF7 cells were cultured in complete growth medium (Dulbecco's modified Eagle's medium (DMEM) supplemented with 10% FBS and 0.01 mg/ml human recombinant insulin (Sigma Aldrich); Namalwa and Ramos cells were cultured in complete growth medium (RPMI 1640 medium supplemented with 10% FBS); HCT116 and HT29 cells were cultured in complete growth medium (McCoy's 5a Medium supplemented with 10% FBS). For cellular degradation of BRD4 studies cells were seeded in a 12-well plate at 70-80% confluency, allowed to attach overnight, and incubated with the indicated compounds for the indicated time. When indicated, a 15-minute pretreatment with 10 μM pomalidomide, 10 μM VHL298, 10 μM Nutlin3a, 1 μM MG-132 or 1 μM Carfilzomib was performed before the addition of CURE-PROs. For washout studies, after CURE-PRO treatment, media was aspirated and incubated with complete medium for the indicated time before lysis.
as §1
HeLa cells (2.5×10^6) were treated for 24 hours with the sample compounds solubilized in DMSO. Compounds were added at 1-10 μM each. Standardized protein samples were electrophoresed and imaged as described in the immunoblotting description above. FIGS. 6-18 depicts the CURE-PRO-mediated BRD4 degradation for BRD monomers (JQ1 derivatives comprising of catechol linkers), and CRBN ligands, 8048 and 8049 (pomalidomide derivatives comprising boronic acid linkers) combined in a 1:1 ratio.
HeLa cells (2.5×10^6) were treated for 24 hours with the compounds solubilized in DMSO. The compounds were added at 10 μM each. Standardized protein samples were electrophoresed and imaged as described in the immunoblotting section above. FIGS. 23-27 depicts the CURE-PRO-mediated BRD4 degradation for BRD monomers (JQ1 derivatives comprising of boronic acid linkers), and CRBN ligands, 8046, 8047 and 8066 (pomalidomide derivatives comprising diol linkers) combined in a 1:1 ratio.
HeLa cells (2.5×10^6) were treated for 24 hours with the compounds solubilized in DMSO. Compounds were added at 10 μM and 100 μM each. Standardized protein samples were electrophoresed and imaged as described in the immunoblotting section above.
HeLa cells (2.5×10^6) were treated for 24 hours with the compounds solubilized in DMSO. Compounds were added at 1 nM-1 μM each. […]
(In western blotting, separated proteins are transferred to a membrane and probed.)

Setting [3] is: co-treated 1:1 with CRBN ligand 8047, HeLa, 10 μM each.
Where [4] appears, read: co-treated 1:1 with CRBN ligand 8066, HeLa, 10 μM each.
[5] abbreviates: co-treated 1:1 with CRBN ligand 8046, HeLa, 10 μM each.
Setting [6] is: BRD4 monomer alone, HeLa, 1-10 μM.
[7] abbreviates: co-treated 1:1 with CRBN ligand 8048, HeLa, 1-10 μM each.
Where [8] appears, read: co-treated 1:1 with CRBN ligand 8049, HeLa, 1-10 μM each.

“Also recorded” adds a separate entry of the source.

With `CCNC(=O)C[C@@H]1N=C(c2ccc(Cl)cc2)c2cc(OCCOCCOCCOCCNC(=O)c3ccc(B(O)O)cc3)ccc2-n2c(C)nnc21` [BRD-E43], on BRD4 [1], the “Degradation of BRD4, combination with CRBN ligand 8047” value (from here on “Degradation … with CRBN ligand 8047”) is recorded as “√ (A black check mark indicates efficacy of 30% to 70% or higher protein degradation)” and the “Degradation of BRD4, combination with CRBN ligand 8066” value (from here on “Degradation … with CRBN ligand 8066”) is given as “√ (A black check mark indicates efficacy of 30% to 70% or higher protein degradation)”. For the same compound, on BRD4 [2] (setting [3]), the BRD4 degradation entry was “causes degradation of BRD4”. Further, the BRD4 degradation result on BRD4 [2] (setting [4]) was “causes degradation of BRD4; also recorded: Degradation is noted”.
Take `COc1ccc2c(c1)C(c1ccc(Cl)cc1)=N[C@@H](CC(=O)Nc1ccc(B(O)O)cc1)c1nnc(C)n1-2` [BRD-E74, (4-(2-((4S)-6-(4-chlorophenyl)-8-methoxy-1-methyl-4H-benzo[f][1,2,4]triazolo[4,3-a][1,4]diazepin-4-yl)acetamido)phenyl)boronic acid]: the “Degradation of BRD4, combination with CRBN ligand 8046” value on BRD4 [1] was “√ (A black check mark indicates efficacy of 30% to 70% or higher protein degradation)”. Besides, the “Degradation of BRD4, combination with MDM2 ligand 8314” value on BRD4 [1] (Table 2, aryl-boronic acid BRD4 ligand + 8314) is “√ (A black check mark indicates efficacy of 30% to 70% or higher protein degradation)”. Further, the BRD4 degradation entry on BRD4 [2] (setting [5]) and at BRD4 [2] (setting [3]) was “causes degradation of BRD4” throughout.
Consider `CCNC(=O)C[C@@H]1N=C(c2ccc(Cl)cc2)c2cc(OCCOCCNC(=O)c3ccc(O)c(O)c3)ccc2-n2c(C)nnc21` [BRD-N38, N-(2-(2-(((4S)-6-(4-chlorophenyl)-4-(2-(ethylamino)-2-oxoethyl)-1-methyl-4H-benzo[f][1,2,4]triazolo[4,3-a][1,4]diazepin-8-yl)oxy)ethoxy)ethyl)-3,4-dihydroxybenzamide], for which, at BRD4 [1], the “Degradation of BRD4, combination with CRBN ligand 8048” value (from here on “Degradation … with CRBN ligand 8048”) was “√ (A black check mark indicates efficacy of 30% to 70% or higher protein degradation)”. For the same compound, the BRD4 degradation result was “there is no degradation of BRD4” at BRD4 [2] (setting [6]) and “causes degradation of BRD4” on BRD4 [2] (setting [7]).
As to `COc1ccc2c(c1)C(c1ccc(Cl)cc1)=N[C@@H](CC(=O)NCCNC(=O)Cc1ccc(B(O)O)cc1)c1nnc(C)n1-2` [BRD-E27, (4-(2-((2-(2-((4S)-6-(4-chlorophenyl)-8-methoxy-1-methyl-4H-benzo[f][1,2,4]triazolo[4,3-a][1,4]diazepin-4-yl)acetamido)ethyl)amino)-2-oxoethyl)phenyl)boronic Acid], on BRD4 [1], the “Degradation … with CRBN ligand 8047” value is reported as “√ (A black check mark indicates efficacy of 30% to 70% or higher protein degradation)”. In addition, on BRD4 [2] (setting [3]), the BRD4 degradation result is “causes degradation of BRD4”.
On to `COc1ccc2c(c1)C(c1ccc(Cl)cc1)=N[C@@H](CC(=O)NCCCNC(=O)c1cccc(B(O)O)c1)c1nnc(C)n1-2` [BRD-E4], for which the “Degradation of BRD4, combination with CRBN ligand 8046” value on BRD4 [1] was “√ (A black check mark indicates efficacy of 30% to 70% or higher protein degradation)”. The “Degradation … with CRBN ligand 8047” value on BRD4 [1] is reported as “√ (A black check mark indicates efficacy of 30% to 70% or higher protein degradation)”. Moreover, the “Degradation … with CRBN ligand 8066” value at BRD4 [1] is recorded as “√ (A black check mark indicates efficacy of 30% to 70% or higher protein degradation)”. Moreover, the BRD4 degradation result on BRD4 [2] (setting [5]), at BRD4 [2] (setting [3]) and at BRD4 [2] (setting [4]) was “causes degradation of BRD4; also recorded: Degradation is noted” each time.
With `CCNC(=O)C[C@@H]1N=C(c2ccc(Cl)cc2)c2cc(OCCOCCOCCNC(=O)c3cccc(B(O)O)c3)ccc2-n2c(C)nnc21` [BRD-E42], the “Degradation … with CRBN ligand 8047” value at BRD4 [1] was “√ (A black check mark indicates efficacy of 30% to 70% or higher protein degradation)”. Besides, on BRD4 [2] (setting [3]), the BRD4 degradation entry is on record as “causes degradation of BRD4”.
As for `COc1ccc2c(c1)C(c1ccc(Cl)cc1)=N[C@@H](CC(=O)NCCCCNC(=O)c1cccc(O)c1O)c1nnc(C)n1-2` [BRD-N6], the “Degradation … with CRBN ligand 8048” value at BRD4 [1] was “√ (A black check mark indicates efficacy of 30% to 70% or higher protein degradation)”. The BRD4 degradation result at BRD4 [2] (setting [6]) was “there is no degradation of BRD4”; at BRD4 [2] (setting [7]), “causes degradation of BRD4; also recorded: Degradation is noted”; at BRD4 [2] (setting [8]) it was “no evidence of BRD4 degradation”.
In the case of `COc1ccc2c(c1)C(c1ccc(Cl)cc1)=N[C@@H](CC(=O)NCCNC(=O)Cc1ccc(O)c(O)c1)c1nnc(C)n1-2` [BRD-N30], the “Degradation … with CRBN ligand 8048” value at BRD4 [1] was “√ (A black check mark indicates efficacy of 30% to 70% or higher protein degradation)”. Moreover, the values for the BRD4 degradation result on BRD4 [2] (setting [6]) and on BRD4 [2] (setting [7]) were “there is no degradation of BRD4” and “causes degradation of BRD4”, respectively.
Take `COc1ccc2c(c1)C(c1ccc(Cl)cc1)=N[C@@H](CC(=O)NCCCCNC(=O)c1ccc(B(O)O)cc1)c1nnc(C)n1-2` [BRD-E5]: on BRD4 [1], the “Degradation … with CRBN ligand 8047” value is recorded as “√ (A black check mark indicates efficacy of 30% to 70% or higher protein degradation)” and the “Degradation … with CRBN ligand 8066” value is on record as “√ (A black check mark indicates efficacy of 30% to 70% or higher protein degradation)”. Further, the BRD4 degradation result on BRD4 [2] (setting [3]) was “causes degradation of BRD4; also recorded: Degradation is noted”. For the same compound, the BRD4 degradation result on BRD4 [2] (setting [4]) is given as “causes degradation of BRD4; also recorded: Degradation is noted”.
In the case of `CCNC(=O)C[C@@H]1N=C(c2ccc(Cl)cc2)c2cc(-c3ccc4cc(O)c(O)cc4c3)ccc2-n2c(C)nnc21` [BRD-N67], on BRD4 [1], the “Degradation … with CRBN ligand 8048” value was “√ (A black check mark indicates efficacy of 30% to 70% or higher protein degradation)”. Further, the “Degradation of BRD4, combination with CRBN ligand 8049” value at BRD4 [1] (Table 4, aromatic 1,2-diol BRD4 ligand + 8049) was “√ (A black check mark indicates efficacy of 30% to 70% or higher protein degradation)”. Further, the BRD4 degradation result is listed as “there is no degradation of BRD4” on BRD4 [2] (setting [6]), “causes degradation of BRD4” on BRD4 [2] (setting [7]) and “causes degradation of BRD4” on BRD4 [2] (setting [8]).
Take `CCNC(=O)C[C@@H]1N=C(c2ccc(Cl)cc2)c2cc(OCCCCC(=O)Nc3ccc(O)c(O)c3)ccc2-n2c(C)nnc21` [BRD-N22, 5-(((4S)-6-(4-chlorophenyl)-4-(2-(ethylamino)-2-oxoethyl)-1-methyl-4H-benzo[f][1,2,4]triazolo[4,3-a][1,4]diazepin-8-yl)oxy)-N-(3,4-dihydroxyphenyl)pentanamide]: at BRD4 [1], the “Degradation … with CRBN ligand 8048” value was “√ (A black check mark indicates efficacy of 30% to 70% or higher protein degradation)”. For the same compound, the results for the BRD4 degradation entry at BRD4 [2] (setting [6]), at BRD4 [2] (setting [7]) and on BRD4 [2] (setting [8]) were “there is no degradation of BRD4”, “causes degradation of BRD4; also recorded: Degradation is noted” and “no evidence of BRD4 degradation”, respectively.
